Data: patent US20050060764A1, “Mouse model for bone metabolism” (priority 2003, published 2005)
Strand notation (5' to 3'): a small letter for the sugar, then the base; units joined by * are phosphorothioate-linked, units joined directly phosphodiester-linked; [ ] holds rarer units or linkages, { } end groups; capitals alone tell only the bases. e = 2'-O-(2-methoxyethyl) (MOE); [5mC] = 5-methylcytosine; d = 2'-deoxy (DNA)

Legend:
[1] = Serum calcium concentration after PTH infusion in mice: specificity and dose response of RANK antisense oligonucleotide (Table 15); type: in vivo, mouse; details: for serum calcium: then 24 h PTH
Method: (§1) In accordance with the present invention, the specificity of RANK inhibition by a RANK antisense oligonucleotide was compared to that of an 8-base pair mismatch oligonucleotide.
(§2) ISIS 181080 ([…], SEQ ID NO: 357) is an antisense oligonucleotide targeted to mouse RANK. ISIS 208565 ([…], SEQ ID NO: 358) is an 8-base pair mismatch oligonucleotide. […] All cytidine residues are 5-methylcytidines.
(§3) Female Swiss-Webster mice (5-8 wks old) fed a low-calcium diet were treated for two weeks with either ISIS 181080 or ISIS 208565. The dose of oligonucleotide was either 40 mg/kg, 30 mg/kg, 20 mg/kg, or 10 mg/kg. After the 2-week treatment with oligonucleotides, the mice were infused with PTH by subcutaneously implanted mini-pumps at a dose of 4 ug/100 g over 24 hours. A group of control mice were dosed with either saline, PTH alone (1 ug/100 g/6 hr) or calcitonin (400 ng) plus PTH (1 ug/100 g/6 hr). After 24 hours of PTH infusion (total PTH delivery of 4 ug/100 g), the mice were sacrificed and measurements were made of serum calcium with the Sigma Diagnostics Calcium Kit (Sigma-Aldrich) and RANK mRNA expression in proximal tibia (as described in other examples herein). The results shown in Table 15 are the average from four mice per group. Percent inhibition of RANK mRNA is normalized to PTH treatment alone. […] The data also illustrate that these effects are occurring due to an antisense mechanism.

[2] = test system: RANK mRNA; test: Antisense inhibition of RANK mRNA expression in proximal tibia after PTH infusion in mice: specificity and dose response (Table 15); type: in vivo, mouse; details: for RANK mRNA % inhibition (normalized to PTH): then 24 h PTH, proximal tibia
Method: as §1, §2, §3

[3] = test system: RANKL mRNA; test: Antisense inhibition of RANKL mRNA expression followed by PTH treatment in primary mouse osteoblast cells: dose response (Table 8); type: cell-based; details: primary mouse osteoblast cells; 63 nM, 125 nM, 250 nM, or 500 nM, 24 hours, FuGENE 6; 10 nM PTH last 2 hours
Method: Primary mouse osteoblasts were prepared from calvaria of neonatal mice purchased from Charles River Laboratories. […] Cells were not passaged. Cells were seeded onto 6-well plates (Falcon-Primaria #353846) at a density of 50,000 cells/well for use in antisense oligonucleotide transfection.
In a further embodiment of this invention, the effect of RANKL antisense oligonucleotides and PTH treatment on the expression of RANKL was determined in primary osteoblast cells isolated from mice skull caps.
ISIS 143624 ([…], SEQ ID NO: 348) was used as a control oligonucleotide. […] All cytidine residues are 5-methylcytidines.
Primary osteoblastic cells were transfected for 24 hours with either Isis 180819 (SEQ ID NO: 185) or the control oligo ISIS 143624 (SEQ ID NO: 348) at a dose of […], 125 nM, 250 nM, or 500 nM by the methods described herein but using the transfection reagent FuGENE 6 (Roche Applied Science, Indianapolis, Ind.). During the last 2 hours of oligonucleotide transfection, the cells were treated with 10 nM PTH. The RNA was then harvested and the expression levels of […] were measured by the methods described herein. The results are expressed as percent inhibition relative to PTH treatment alone and represent the average from three experiments.

[4] = test system: mouse RANKL mRNA; test: Antisense inhibition of mouse RANKL mRNA levels in C2C12 cells, quantitative real-time PCR (Table 2); type: cell-based; set-up: concentration or dose not given beside the values; details: averages from three experiments
Method in brief: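 C2C12 cells seeded at ~10,000 cells/cm^2, treated with antisense oligonucleotides (all C as 5-methylcytidine) in triplicate and harvested 16-24 h later. Mouse RANKL mRNA quantified by real-time RT-PCR with a FAM/TAMRA probe, with mouse GAPDH (JOE/TAMRA probe) as reference.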

[5] = Serum calcium concentration 24 hours after PTH infusion in mice treated with RANKL antisense oligonucleotides (Table 10); type: in vivo, mouse; details: then 24 h PTH infusion
Method: In accordance with the present invention, the effect of antisense oligonucleotide inhibition on PTH-induced serum calcium concentration increase was measured in mice. The serum calcium concentration in mice was measured as a function of antisense oligonucleotide dose. Calcitonin, a known bone antiresorptive agent, was used as a control for antiresorptive activity.
(§4) Female Swiss-Webster (5-8 wks old) mice fed a low-calcium diet were dosed subcutaneously for two weeks with either the oligonucleotides ISIS 180819 (SEQ ID NO: 185) or 180814 (SEQ ID NO: 180) at concentrations of 5 mg/kg, 15 mg/kg, 30 mg/kg, or 40 mg/kg. A control group of mice were treated with calcitonin (400 ng) plus PTH (1 ug/100 g/6 hr), PTH alone (1 ug/100 g/6 hr) or saline. Treatment with oligonucleotides was followed with infusion of PTH by subcutaneously implanted mini-pumps at a dose of 1 ug/100 g/6 hr. After 24 hours of PTH infusion (total PTH delivery of 4 ug/100 g), the mice were sacrificed and the serum calcium concentration was measured with the Sigma Diagnostics Calcium Kit (Sigma-Aldrich). The data, summarized in Table 10 are averages from eight mice. Percent mRNA inhibition is normalized to PTH alone treatment.

[6] = test system: RANKL mRNA; test: RANKL mRNA % inhibition after PTH infusion in mice treated with RANKL antisense oligonucleotides for two weeks (Table 10); type: in vivo, mouse; details: then 24 h PTH infusion, normalized to PTH alone
Method: as §4

[7] = Serum calcium after RANK antisense oligonucleotide treatment and PTH infusion: time course (Table 13); type: in vivo, mouse; details: control mice, no oligonucleotide; PTH 1 ug/100 g/6 hr 24 h, calcitonin (400 ug)
Method: In accordance with the present invention, ISIS 181071 was administered to mice for different time periods to evaluate its ability to inhibit RANK expression and PTH-induced serum calcium concentration increase as a function of oligonucleotide treatment time.
Female Swiss-Webster mice (5-8 wks old) were fed a low-calcium diet and received daily subcutaneous injections of 30 mg/kg of ISIS 181071 (SEQ ID NO: 356) for 2, 3, 5, 7, 10, 14, or 21 days. At the end of the oligonucleotide treatment period, mice were infused with PTH by subcutaneously implanted mini-pumps at a dose of 1 ug/100 g/6 hr. A group of control mice were dosed with either saline, PTH alone (1 ug/100 g/6 hr) or calcitonin (400 ug) plus PTH (1 ug/100 g/6 hr). Following 24 hours of PTH infusion (total PTH delivery of 4ug/100 g), the mice were sacrificed and measurements were made of serum calcium with the Sigma Diagnostics Calcium Kit (Sigma-Aldrich) and RANK mRNA expression in the proximal tibia (as described in other examples herein). Percent RANK mRNA inhibition is normalized to PTH alone treatment.

[8] = mice, two weeks 10, 20, 30 or 40 mg/kg, 24 hours PTH infusion
[9] = 5 mg/kg subcutaneously two weeks
[10] = 15 mg/kg subcutaneously two weeks
[11] = 30 mg/kg subcutaneously two weeks
[12] = 40 mg/kg subcutaneously two weeks

| Molecule | serum calcium ([1]; 10 mg/kg two weeks) [mg/dL] | serum calcium ([1]; 20 mg/kg two weeks) [mg/dL] | serum calcium ([1]; 30 mg/kg two weeks) [mg/dL] | serum calcium ([1]; 40 mg/kg two weeks) [mg/dL] | RANK mRNA % inhibition (normalized to PTH) ([2]; 10 mg/kg two weeks) [%] | RANK mRNA % inhibition (normalized to PTH) ([2]; 20 mg/kg two weeks) [%] | RANK mRNA % inhibition (normalized to PTH) ([2]; 30 mg/kg two weeks) [%] | RANK mRNA % inhibition (normalized to PTH) ([2]; 40 mg/kg two weeks) [%] | other results |
| --- | --- | --- | --- | --- | --- | --- | --- | --- | --- |
| GAGCTCCCGGACCCTGAGGC (listed as DNA, chemistry not given here) [ISIS 181080, antisense oligonucleotide targeted to mouse RANK] | 23 | 17 | 15 | 16 | 47 | 38 | 48 | 65 | PTH-induced rise in serum calcium concentration [1, 8]: lessens the PTH-induced rise in serum calcium concentration; expression of RANK mRNA in proximal tibia [2, 8]: inhibits expression of RANK mRNA in vivo |
| TCCTCGAGAGGTCTCCTTGC (antisense eT*e[5mC]*e[5mC]*eT*e[5mC]*dG*dA*dG*dA*dG*dG*dT*d[5mC]*dT*d[5mC]*e[5mC]*eT*eT*eG*e[5mC]) [ISIS 208565, 8-base pair mismatch oligonucleotide, 2′-MOE gapmer, reference compound] | 21 | 17 | 18 | 16 | 0 | 0 | 19 | 7 |  |
| TGCTCAGCGAGTGTGCCAGC (sugars by position and backbone not given here; further chemistry not fully specified) [ISIS 143624, control oligonucleotide, 2′-MOE gapmer, reference compound] |  |  |  |  |  |  |  |  | inhibition of PTH-induced increase in RANKL mRNA expression [3]: unable to reduce RANKL mRNA levels |
| gtcttacacatgtatagaca (antisense eG*eT*e[5mC]*eT*eT*dA*d[5mC]*dA*d[5mC]*dA*dT*dG*dT*dA*dT*eA*eG*eA*e[5mC]*eA) [ISIS 180814, 2′-MOE gapmer targeted to mouse RANKL] |  |  |  |  |  |  |  |  | % INHIB (inhibition of mouse RANKL mRNA levels) [4]: at least 40%; serum calcium [5, 9]: 22 mg/dL; serum calcium [5, 10]: 20 mg/dL; serum calcium [5, 11]: 18 mg/dL; serum calcium [5, 12]: 19 mg/dL; RANKL mRNA, % inhib [6, 9]: 0 % inhib; RANKL mRNA, % inhib [6, 10]: 0 % inhib; RANKL mRNA, % inhib [6, 11]: 27 % inhib; RANKL mRNA, % inhib [6, 12]: 6 % inhib |
| PTH alone (peptide, UniProt P01270 32-115, looked up) Parathyroid hormone: SVSEIQLMHNLGKHLNSMERVEWLRKKLQDVHNFVALGAPLAPRDAGSQRPRKKEDNVLVESHEKSLGEADKADVNVLTKAKSQ |  |  |  |  |  |  |  |  | Serum calcium concentration [7]: 21 mg/dL |
